From patent US20250043299A1, “POINT MUTATIONS THAT BOOST AROMATIC AMINO ACID PRODUCTION AND CO2 ASSIMILATION IN PLANTS” (Wisconsin Alumni Research Foundation, priority 2021, published 2025)
Read-outs that look alike come from different tables or passages of the source.

Columns and labels:
Type in all cases: biochemical
[1] = molecular target: T1, DHS1^B4 (Arabidopsis thaliana, UniProt P29976, G244R); assay: DHS enzyme assay, recombinant DHS1^B4; details: recombinant enzyme; for IC50: read-out: IC50 of effector molecule on DHS1^B4
T1 construct: without the predicted plastid transit peptide (amino acid residues; 49-525, 34-507, and 52-527, respectively); made in house; host or cells: E. coli
T1 sequence (P29976 49-525 G244R): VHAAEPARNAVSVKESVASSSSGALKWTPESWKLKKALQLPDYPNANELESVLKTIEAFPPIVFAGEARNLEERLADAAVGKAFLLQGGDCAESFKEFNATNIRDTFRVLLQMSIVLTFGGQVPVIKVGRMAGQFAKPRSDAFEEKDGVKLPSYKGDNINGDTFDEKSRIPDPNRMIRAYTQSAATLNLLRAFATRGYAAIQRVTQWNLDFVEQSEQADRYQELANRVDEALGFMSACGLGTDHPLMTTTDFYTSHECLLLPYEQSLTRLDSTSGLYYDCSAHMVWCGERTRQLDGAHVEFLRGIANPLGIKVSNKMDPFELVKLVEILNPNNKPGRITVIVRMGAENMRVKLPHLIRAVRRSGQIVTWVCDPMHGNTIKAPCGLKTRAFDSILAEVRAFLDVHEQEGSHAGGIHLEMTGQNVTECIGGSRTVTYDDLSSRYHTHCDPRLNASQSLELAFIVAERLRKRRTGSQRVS
Description: (§1) To generate recombinant DHS proteins the pET28a vectors carrying the A. thaliana DHS1 (AtDHS1), AtDHS2, or AtDHS3 WT sequence without the predicted plastid transit peptide (amino acid residues; 49-525, 34-507, and 52-527, respectively) were expressed in E. coli Rosetta-2 cells and purified using Ni-affinity chromatography, exactly as was conducted previously (9). To generate DHS proteins with individual sota mutations via site-directed mutagenesis, these pET28a plasmid templates were diluted by 500-fold, mixed with 0.04 U/μL Phusion DNA polymerase (Thermo Scientific), 0.2 mM deoxynucleoside triphosphates (dNTPs), 1× Phusion reaction buffer (Thermo Scientific), and 0.5 μM forward and reverse mutagenesis primers (Table 10). The PCR reaction was run using the following protocol: 98° C. for 30 s followed by 20 cycles of 10 s at 98° C., 20 s at 70° C., 4.5 min at 72° C. with a final extension at 72° C. for 10 min. The PCR products were purified using a QIAquick Gel Extraction Kit (QIAGEN), treated with FastDigest DpnI (Thermo Scientific) to digest methylated plasmid template DNA for 20 min at 37° C., and transformed into E. coli cells. The mutagenized pET28a plasmids were sequenced to confirm that no errors were introduced during the mutagenesis process.
(§2) The DHS enzyme assays were conducted using the colorimetric method that we recently described (9). Briefly, the enzyme solution (7.7 μl) containing 50 mM Hepes (pH 7.4) was preincubated with an effector molecule(s) at room temperature for 15 min. For assays using recombinant protein and enzyme fractions isolated from plant leaves, 0.01 to 0.1 μg and approximately 50 μg of proteins were used, respectively. After adding 0.5 μl of 0.1 M dithiothreitol, the samples were further incubated at room temperature for 15 min. During these incubations, the substrate solution containing 50 mM Hepes (pH 7.4), 2 mM MnCl2, 4 mM E4P, and 4 mM PEP at final concentration was preheated at 37° C. The enzyme reaction was started by adding 6.8 μl of the substrate solution, then incubated at 37° C. for 30 min, and terminated by adding 30 μl of 0.6 M trichloroacetic acid. After a brief centrifugation, 5 μl of 200 mM NaIO4 (sodium meta-periodate) in 9 N H3PO4 was added to oxidize the enzymatic product and to incubate at 25° C. for 20 min. To stop the oxidation reaction, 20 μl of 0.75 M NaAsO2 (sodium arsenite), which was dissolved in 0.5 M Na2SO4 and 0.05 M H2SO4, was added and immediately mixed. After 5 min of incubation at room temperature, one-third of the sample solution was transferred to a new tube to be mixed with 50 μl of 40 mM thiobarbituric acid and incubated at 99° C. for 15 min in a thermal cycler. The mixture was added to 600 μl of cyclohexanone in eight-strip solvent-resistant plastic tubes, mixed vigorously, and centrifuged at 4500 g for 3 min to separate water- and cyclohexanone-based layers for the extraction off the developed pink chromophore. The absorbance of the pink supernatant was read at 549 nm with the microplate reader (Infinite 200 PRO, TECAN) to calculate DAHP production with the molar extinction coefficient at 549 nm (ε=549 nm) of 4.5×10^4 M^−1 cm^−1. Reaction mixtures with boiled enzymes were run in parallel and used as negative controls to estimate the background signal.

[2] = molecular target: T2, DHS2^A4 (Arabidopsis thaliana, UniProt Q00218, G222S); details: for IC50: read-out: IC50 of effector molecule on DHS2^A4
T2 construct: without the predicted plastid transit peptide (amino acid residues; 49-525, 34-507, and 52-527, respectively); made in house; host or cells: E. coli
Description: as §1, §2

[3] = molecular target: T3, DHS2^A11 (Arabidopsis thaliana, UniProt Q00218, A224T); assay: DHS enzyme assay, recombinant DHS2^A11; details: for IC50: read-out: IC50 of effector molecule on DHS2^A11
T3 construct: without the predicted plastid transit peptide (amino acid residues; 49-525, 34-507, and 52-527, respectively); made in house; host or cells: E. coli
T3 sequence (Q00218 34-507 A224T): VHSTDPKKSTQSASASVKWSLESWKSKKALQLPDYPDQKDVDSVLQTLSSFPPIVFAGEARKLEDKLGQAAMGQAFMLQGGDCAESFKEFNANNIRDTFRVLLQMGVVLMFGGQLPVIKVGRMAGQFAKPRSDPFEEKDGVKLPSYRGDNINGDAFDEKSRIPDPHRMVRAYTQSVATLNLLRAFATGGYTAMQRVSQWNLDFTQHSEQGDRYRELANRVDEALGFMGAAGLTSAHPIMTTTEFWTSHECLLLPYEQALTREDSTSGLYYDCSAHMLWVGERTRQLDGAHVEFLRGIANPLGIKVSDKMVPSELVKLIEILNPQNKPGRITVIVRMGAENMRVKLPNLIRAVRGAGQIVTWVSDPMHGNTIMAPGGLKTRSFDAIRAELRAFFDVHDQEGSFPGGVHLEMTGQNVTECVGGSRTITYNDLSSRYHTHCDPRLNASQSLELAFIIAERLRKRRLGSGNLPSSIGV
Description: as §1, §2

[4] = molecular target: T4, DHS2^F1 (Arabidopsis thaliana, UniProt Q00218, L136F); assay: DHS enzyme assay, recombinant DHS2^F1; details: for IC50: read-out: IC50 of effector molecule on DHS2^F1
T4 construct: without the predicted plastid transit peptide (amino acid residues; 49-525, 34-507, and 52-527, respectively); made in house; host or cells: E. coli
T4 sequence (Q00218 34-507 L136F): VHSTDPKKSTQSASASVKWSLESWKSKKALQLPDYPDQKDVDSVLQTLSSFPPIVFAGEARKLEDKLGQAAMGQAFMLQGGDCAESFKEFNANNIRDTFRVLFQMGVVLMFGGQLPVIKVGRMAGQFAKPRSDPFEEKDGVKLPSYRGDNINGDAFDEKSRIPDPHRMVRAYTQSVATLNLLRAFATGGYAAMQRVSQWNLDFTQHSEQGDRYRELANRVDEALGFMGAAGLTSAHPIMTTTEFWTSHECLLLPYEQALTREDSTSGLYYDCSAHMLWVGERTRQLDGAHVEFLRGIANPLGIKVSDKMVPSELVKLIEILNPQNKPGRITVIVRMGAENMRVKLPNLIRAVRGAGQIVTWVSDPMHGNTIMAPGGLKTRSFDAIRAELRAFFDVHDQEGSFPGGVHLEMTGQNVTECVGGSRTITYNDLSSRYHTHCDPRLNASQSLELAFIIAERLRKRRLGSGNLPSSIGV
Description: as §1, §2

[5] = molecular target: T5, Arabidopsis thaliana DHS1 (SEQ ID NO:1) variant DHS1^B4 (sotaB4), G244R (Arabidopsis thaliana, UniProt P29976, G244R); assay: DHS enzyme assay with effector, DHS1 sotaB4
T5 construct: without the predicted plastid transit peptide (amino acid residues; 49-525, 34-507, and 52-527, respectively); made in house; host or cells: E. coli
T5 sequence (P29976 49-525 G244R): as the sequence (P29976 49-525 G244R) above
Description: as §1, §2

[6] = molecular target: T6, Arabidopsis thaliana DHS2 (SEQ ID NO:2) variant DHS2^A4 (sotaA4), G222S (Arabidopsis thaliana, UniProt Q00218, G222S); assay: biochemical
T6 construct: without the predicted plastid transit peptide (amino acid residues; 49-525, 34-507, and 52-527, respectively); made in house; host or cells: E. coli
T6 sequence (Q00218 34-507 G222S): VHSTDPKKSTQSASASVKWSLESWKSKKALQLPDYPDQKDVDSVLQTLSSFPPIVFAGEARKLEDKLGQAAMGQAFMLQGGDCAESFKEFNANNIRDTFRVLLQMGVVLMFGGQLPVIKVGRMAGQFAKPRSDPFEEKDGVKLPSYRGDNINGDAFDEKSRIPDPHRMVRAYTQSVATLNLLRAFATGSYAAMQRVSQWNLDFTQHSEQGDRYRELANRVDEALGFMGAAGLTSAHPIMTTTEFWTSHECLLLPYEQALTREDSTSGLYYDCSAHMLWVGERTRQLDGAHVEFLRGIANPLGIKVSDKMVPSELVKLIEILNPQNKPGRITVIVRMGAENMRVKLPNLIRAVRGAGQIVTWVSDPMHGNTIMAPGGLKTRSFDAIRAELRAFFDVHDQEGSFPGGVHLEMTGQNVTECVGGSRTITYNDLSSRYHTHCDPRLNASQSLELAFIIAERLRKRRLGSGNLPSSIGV
Description: as §1, §2

[7] = molecular target: T7, Arabidopsis thaliana DHS2 (SEQ ID NO:2) variant DHS2^A11 (sotaA11), A224T (Arabidopsis thaliana, UniProt Q00218, A224T); assay: DHS enzyme assay with effector, DHS2 sotaA11
T7 construct: without the predicted plastid transit peptide (amino acid residues; 49-525, 34-507, and 52-527, respectively); made in house; host or cells: E. coli
T7 sequence (Q00218 34-507 A224T): as the sequence (Q00218 34-507 A224T) above
Description: as §1
(§3) The DHS enzyme assays were conducted using the colorimetric method that we recently described (9). Briefly, the enzyme solution (7.7 μl) containing 50 mM Hepes (pH 7.4) was preincubated with an effector molecule(s) at room temperature for 15 min. For assays using recombinant protein and enzyme fractions isolated from plant leaves, 0.01 to 0.1 μg and approximately 50 μg of proteins were used, respectively. After adding 0.5 μl of 0.1 M dithiothreitol, the samples were further incubated at room temperature for 15 min. […] The absorbance of the pink supernatant was read at 549 nm with the microplate reader (Infinite 200 PRO, TECAN) to calculate DAHP production with the molar extinction coefficient at 549 nm (ε=549 nm) of 4.5×10^4 M^−1 cm^−1. […]

[8] = molecular target: T8, Arabidopsis thaliana DHS2 (SEQ ID NO:2) variant DHS2^F1 (sotaF1), L136F (Arabidopsis thaliana, UniProt Q00218, L136F); assay: DHS enzyme assay with effector, DHS2 sotaF1
T8 construct: without the predicted plastid transit peptide (amino acid residues; 49-525, 34-507, and 52-527, respectively); made in house; host or cells: E. coli
T8 sequence (Q00218 34-507 L136F): as the sequence (Q00218 34-507 L136F) above
Description: as §1, §3

[9] = molecular target: Arabidopsis thaliana DHS3 (AtDHS3), wild type (DHS3^WT), SEQ ID NO:3 (Arabidopsis thaliana, UniProt Q9SK84); assay: DHS enzyme assay with effector, Arabidopsis DHS3 WT
Sequence of Arabidopsis thaliana DHS3 (AtDHS3), wild type (DHS3^WT), SEQ ID NO:3 (Q9SK84 entry or part of it): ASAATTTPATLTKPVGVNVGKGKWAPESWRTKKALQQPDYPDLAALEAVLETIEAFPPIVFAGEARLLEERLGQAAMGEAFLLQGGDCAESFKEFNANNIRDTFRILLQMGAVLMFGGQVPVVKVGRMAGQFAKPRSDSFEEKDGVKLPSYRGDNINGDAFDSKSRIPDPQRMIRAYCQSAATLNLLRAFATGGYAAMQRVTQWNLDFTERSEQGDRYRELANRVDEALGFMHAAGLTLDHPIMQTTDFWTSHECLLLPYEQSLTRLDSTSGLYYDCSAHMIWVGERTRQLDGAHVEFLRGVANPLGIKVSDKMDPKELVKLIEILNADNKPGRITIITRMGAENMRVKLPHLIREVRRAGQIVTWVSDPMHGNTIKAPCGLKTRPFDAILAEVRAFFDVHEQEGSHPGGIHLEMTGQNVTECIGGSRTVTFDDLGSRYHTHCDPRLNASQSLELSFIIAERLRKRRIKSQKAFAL
Description: as §1, §3

[10] = molecular target: Arabidopsis thaliana DHS3 (SEQ ID NO:3) variant DHS3^G1 (sotaG1), A240T (Arabidopsis thaliana, UniProt Q9SK84, A240T); assay: DHS enzyme assay with effector, DHS3 sotaG1
Sequence of Arabidopsis thaliana DHS3 (SEQ ID NO:3) variant DHS3^G1 (sotaG1), A240T (Q9SK84 entry or part of it A240T): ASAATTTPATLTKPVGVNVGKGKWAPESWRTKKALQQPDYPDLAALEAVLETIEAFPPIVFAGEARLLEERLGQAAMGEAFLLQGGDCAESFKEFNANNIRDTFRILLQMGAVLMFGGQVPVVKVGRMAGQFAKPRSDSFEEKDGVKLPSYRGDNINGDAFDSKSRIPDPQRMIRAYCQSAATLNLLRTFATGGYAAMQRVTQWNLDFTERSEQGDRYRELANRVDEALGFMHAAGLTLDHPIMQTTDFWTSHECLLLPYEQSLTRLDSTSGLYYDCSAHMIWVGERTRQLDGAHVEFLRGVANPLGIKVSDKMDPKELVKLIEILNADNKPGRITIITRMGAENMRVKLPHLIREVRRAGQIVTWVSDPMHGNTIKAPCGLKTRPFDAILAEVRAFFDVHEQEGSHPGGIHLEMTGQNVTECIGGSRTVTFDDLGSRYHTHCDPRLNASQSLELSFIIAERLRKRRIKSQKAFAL
Description: as §1, §3

[11] = molecular target: Arabidopsis thaliana DHS3 (SEQ ID NO:3) variant DHS3^H1 (sotaH1), G114R (Arabidopsis thaliana, UniProt Q9SK84, G114R); assay: DHS enzyme assay with effector, DHS3 sotaH1
Sequence of Arabidopsis thaliana DHS3 (SEQ ID NO:3) variant DHS3^H1 (sotaH1), G114R (Q9SK84 entry or part of it G114R): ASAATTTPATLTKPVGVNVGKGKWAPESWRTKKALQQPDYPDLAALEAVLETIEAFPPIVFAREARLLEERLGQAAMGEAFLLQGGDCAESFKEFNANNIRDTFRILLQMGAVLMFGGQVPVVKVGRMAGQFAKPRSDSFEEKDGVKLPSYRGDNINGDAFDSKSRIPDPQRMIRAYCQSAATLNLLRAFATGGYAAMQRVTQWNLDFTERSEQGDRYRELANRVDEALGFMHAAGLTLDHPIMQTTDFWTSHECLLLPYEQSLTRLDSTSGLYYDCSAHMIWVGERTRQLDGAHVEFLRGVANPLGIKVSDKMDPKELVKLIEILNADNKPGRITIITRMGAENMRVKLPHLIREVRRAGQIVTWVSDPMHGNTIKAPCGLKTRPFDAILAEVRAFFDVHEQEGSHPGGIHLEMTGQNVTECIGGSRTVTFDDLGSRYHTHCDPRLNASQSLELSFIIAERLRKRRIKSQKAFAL
Description: as §1, §3

[12] = DHS3^WT, 4 mM E4P, 4 mM PEP, pH 7.4, 37° C., read-out: IC50

Compound	IC50 [1]	IC50 ([2]; recombinant enzyme)	IC50 ([3]; recombinant enzyme)	IC50 ([4]; recombinant enzyme)	IC50 [5]	IC50 [6]	IC50 [7]	IC50 [8]	IC50 [9]	IC50 [10]	IC50 [11]	IC50 [9, 12]	IC50 of effector molecule on DHS1^B4 [1]	inhibition of DHS2^A4 activity ([2]; effector up to 1 mM)	IC50 of effector molecule on DHS2^A4 ([2]; recombinant enzyme)	inhibition of DHS2^A11 activity ([3]; effector up to 1 mM)	IC50 of effector molecule on DHS2^A11 ([3]; recombinant enzyme)	inhibition of DHS2^F1 activity ([4]; effector up to 1 mM)	IC50 of effector molecule on DHS2^F1 ([4]; recombinant enzyme)
O=C(O)Cc1cc(O)ccc1O [HGA, homogentisate]	2990 µM	212 µM	242 µM	788 µM	2990 µM	212 µM	242 µM	788 µM	102 µM	375 µM	405 µM								
O=C(O)C(=O)Cc1ccc(O)cc1 [HPP, 4-Hydroxyphenylpyruvate]	835 µM	143 µM	58.6 µM	321 µM	835 µM	143 µM	58.6 µM	321 µM		915 µM	903 µM	516 µM							
O=C(O)C(=O)Cc1c[nH]c2ccccc12 [IPA, indole-3-pyruvate]	5000 µM	73.4 µM	90.6 µM	74 µM	5000 µM	73.4 µM	90.6 µM	74 µM		273 µM	108 µM	25.3 µM							
N[C@@H](Cc1c[nH]c2ccccc12)C(=O)O [Trp, tryptophan]													Not inhibited	not inhibited	Not inhibited	not inhibited	Not inhibited	not inhibited	Not inhibited
